Data from US9371331B2, “Modulators of methyl modifying enzymes, compositions and uses thereof” (Constellation Pharmaceuticals, Inc., priority 2012, dated 2016).
Where two headings read alike, the source gives them in different places.

Tests used:
EZH2 (rPRC2) = EZH2 (rPRC2) (Homo sapiens, UniProt Q15910); assay: EZH2 assay: rPRC2, biotinylated oligonucleosomes, 3H SAM methyl transfer (FlashPlate scintillation); format: biochemical; conditions: biotinylated oligonucleosome substrate
[1] = tested on: H3K27me3 mark in HeLa cells; assay: H3K27me3 Alpha Hela Assay (AlphaLISA); format: cell-based; conditions: 72 hrs; for EC50: Homo sapiens, read-out: H3K27me3_Alpha_HeLa_ (EC50)
Protocol: H3K27me3 Alpha Hela Assay (AlphaLISA).
Ten different doses of each test compound (in a series of 3-fold dilutions) were plated in duplicate 384-well tissue culture treated plates (Catalog #781080; Greiner Bio One; Monroe, N.C.). Hela cells grown in culture were trypsinized and counted using a Countess® cell counter (Catalog #C10281; Life Technologies, Grand Island, N.Y.). Cell were diluted to 67,000 cells per mL in 10% DMEM (Catalog #10569-010 Life Technologies. Grand Island, N.Y.) and 15 μL (1,000 cells) were plated into each well using the Biotek MicroFlo™ Select Dispenser (BioTek Instruments. Inc. Vermont, USA),) of the 384-well plate. Plates were incubated at 37° C./5% CO2 for 72 hrs. One of the duplicate plates was processed for HeLa assay and the other for viability.
To the plate processed for AlphaLISA was added 5 μL per well Cell-Histone Lysis buffer (1×) (Catalog #AL009F1 Perkin Elmer; Waltham, Mass.) and the plate was incubated at RT for 30 minutes on a plate shaker with low speed (Model#4625-Q Thermo Scientific; Waltham, Mass.). Then, 10 µL per well Histone Extraction buffer (catalog #AL009F2: Perkin Elmer; Waltham, Mass.) was added and the plate further incubated at RT for 20 min on plate shaker with low speed. To each well was then added 10 μL per well of a 5× mix of anti-K27me3 acceptor beads plus Biotinylated anti-Histone H3 (C-ter) Antibody (diluted to 3 nM final) (Catalog #AL118 Perkin Elmer; Waltham, Mass.). Dilution of the acceptor beads and then anti-Histone H3 was with 1× Histone Detection buffer (Catalog #AL009F3 Perkin Elmer; Waltham, Mass.) which was produced diluted from the 10× stock provided. The plate was sealed with an aluminum plate sealer and incubated at 23° C. for 60 min. We then added 10 μL 5× solution of Streptavidin Donor beads (Catalog #6760002 Perkin Elmer; Waltham, Mass.) (20 μg/mL final in 1× Histone Detection Buffer), sealed the plate with Aluminum plate sealer and incubated at 23° C. for 30 min. The plates were then read using an EnVision-Alpha Reader (model #2104 Perkin Elmer: Waltham, Mass.).
Data from both assays was analyzed using Assay Assistant (Constellation Pharmaceuticals In-house product) and Activity Base (IDBS Ltd. Surrey, UK) template. Data files were imported to Assay Assistant and assay conditions were specified. A unique Analysis ID was created and the data files exported to Activity Base. An analysis template was created on Activity Base to measure dose-dependent inhibition of H3K27me3 mark and cell viability respectively. Readout of DMSO wells were used to normalize the data. Resulting curves were fitted using Activity base software Model 205 (IDBS Ltd, Surrey, UK). The data was checked for quality, validated and integrated in excel format using SARview (IDBS Ltd, Surrey, UK).

Y641N EZH2 = Y641N EZH2 (Homo sapiens, UniProt Q15910, Y641N); assay: Y641N EZH2 assay: as EZH2 assay, with reconstituted H3K27Me2 oligonucleosomes as substrate; format: biochemical
Y641N EZH2, sequence (Q15910 whole entry Y641N): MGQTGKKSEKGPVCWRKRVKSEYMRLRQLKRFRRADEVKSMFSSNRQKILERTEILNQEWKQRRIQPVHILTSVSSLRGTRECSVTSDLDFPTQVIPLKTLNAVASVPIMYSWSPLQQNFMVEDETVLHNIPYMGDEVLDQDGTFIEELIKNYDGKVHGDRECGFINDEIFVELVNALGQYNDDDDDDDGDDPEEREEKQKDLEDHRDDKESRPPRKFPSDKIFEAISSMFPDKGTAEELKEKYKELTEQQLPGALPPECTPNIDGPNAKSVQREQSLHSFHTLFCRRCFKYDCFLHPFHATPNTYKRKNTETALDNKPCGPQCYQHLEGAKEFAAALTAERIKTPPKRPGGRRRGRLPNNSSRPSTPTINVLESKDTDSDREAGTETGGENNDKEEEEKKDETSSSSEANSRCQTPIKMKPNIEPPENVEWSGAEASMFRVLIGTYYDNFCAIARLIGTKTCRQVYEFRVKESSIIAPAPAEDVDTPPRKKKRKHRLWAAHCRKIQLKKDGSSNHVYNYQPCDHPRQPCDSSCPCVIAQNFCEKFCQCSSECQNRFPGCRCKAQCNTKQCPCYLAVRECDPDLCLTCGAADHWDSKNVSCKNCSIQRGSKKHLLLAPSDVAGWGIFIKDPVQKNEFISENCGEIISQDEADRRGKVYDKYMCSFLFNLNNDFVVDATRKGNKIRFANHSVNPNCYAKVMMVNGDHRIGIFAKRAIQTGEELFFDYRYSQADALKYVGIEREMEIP
Y641N EZH2, sequence (O75530 whole entry partner): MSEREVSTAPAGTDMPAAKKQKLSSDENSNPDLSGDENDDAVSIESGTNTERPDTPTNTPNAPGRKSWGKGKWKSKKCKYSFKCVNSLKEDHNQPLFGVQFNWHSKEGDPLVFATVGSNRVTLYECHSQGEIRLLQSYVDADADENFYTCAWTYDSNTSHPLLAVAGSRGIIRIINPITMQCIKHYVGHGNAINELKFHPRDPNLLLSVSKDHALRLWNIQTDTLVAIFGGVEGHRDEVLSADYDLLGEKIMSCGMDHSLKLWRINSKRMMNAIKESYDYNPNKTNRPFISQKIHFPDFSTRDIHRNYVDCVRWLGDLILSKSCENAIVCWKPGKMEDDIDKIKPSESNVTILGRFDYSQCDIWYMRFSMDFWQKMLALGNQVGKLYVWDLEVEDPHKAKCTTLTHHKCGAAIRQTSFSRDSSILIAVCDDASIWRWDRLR
Y641N EZH2, sequence (Q15022 whole entry partner): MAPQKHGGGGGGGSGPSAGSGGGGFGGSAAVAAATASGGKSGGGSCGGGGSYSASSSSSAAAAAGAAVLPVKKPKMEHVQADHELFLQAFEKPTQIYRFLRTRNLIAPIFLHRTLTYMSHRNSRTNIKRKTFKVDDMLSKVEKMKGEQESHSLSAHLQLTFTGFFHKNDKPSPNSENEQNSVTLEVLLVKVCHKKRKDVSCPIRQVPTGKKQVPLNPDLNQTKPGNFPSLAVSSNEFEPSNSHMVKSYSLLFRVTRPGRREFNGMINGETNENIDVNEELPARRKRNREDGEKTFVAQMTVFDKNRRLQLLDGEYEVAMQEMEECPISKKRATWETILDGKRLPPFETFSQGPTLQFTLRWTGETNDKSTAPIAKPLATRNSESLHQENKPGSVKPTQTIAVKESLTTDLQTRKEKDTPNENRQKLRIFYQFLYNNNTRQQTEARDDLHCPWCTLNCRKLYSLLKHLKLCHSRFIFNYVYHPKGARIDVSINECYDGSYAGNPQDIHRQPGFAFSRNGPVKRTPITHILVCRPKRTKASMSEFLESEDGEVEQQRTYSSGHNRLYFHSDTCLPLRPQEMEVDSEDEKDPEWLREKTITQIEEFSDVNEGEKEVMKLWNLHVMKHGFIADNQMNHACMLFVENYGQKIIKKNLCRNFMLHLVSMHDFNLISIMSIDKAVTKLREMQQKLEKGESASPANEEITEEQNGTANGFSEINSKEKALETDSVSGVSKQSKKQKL

[2] = EZH2 IC50, wild-type EZH2 (rPRC2)
[3] = Y641N EZH2 IC50, Y641N mutant EZH2, H3K27Me2 oligonucleosome substrate

EZH2 (rPRC2), sequence (Q15910 whole entry): as the sequence (Q15910 whole entry Y641N) above, with N641Y counted along it
EZH2 (rPRC2), sequence (O75530 whole entry partner): as the sequence (O75530 whole entry partner) above
EZH2 (rPRC2), sequence (Q15022 whole entry partner): as the sequence (Q15022 whole entry partner) above

| SMILES | EC50 [1] | further results |
| --- | --- | --- |
| COc1cc(C)[nH]c(=O)c1CNC(=O)c1c(C)n(C(C)C2CCNCC2)c2ncncc12 (racemic) [Compound 333, (±)-N-((4-methoxy-6-methyl-2-oxo-1,2-dihydropyridin-3-yl)methyl)-6-methyl-7-(1-(piperidin-4-yl)ethyl)-7H-pyrrolo[2,3-d]pyrimidine-5-carboxamide] | 0.4 to 2 µM | IC50 (EZH2 (rPRC2); [2]): < 0.1 µM; IC50 (Y641N EZH2; [3]): 0.1 to 1 µM |
| CCC(C)n1c(C)c(C(=O)NCc2c(OC)cc(C)[nH]c2=O)c2ccc(-c3ccc(N4CCNCC4)nc3)cc21 (racemic) [Compound 349, (±)-1-(sec-butyl)-N-((4-methoxy-6-methyl-2-oxo-1,2-dihydropyridin-3-yl)methyl)-2-methyl-6-(6-(piperazin-1-yl)pyridine-3-yl)-1H-indole-3-carboxamide] | 2 to 10 µM | IC50 (EZH2 (rPRC2); [2]): < 0.1 µM; IC50 (Y641N EZH2; [3]): < 0.1 µM |
| COc1cc(C)[nH]c(=O)c1CNC(=O)c1c(C)n(C(C)c2ccnc(N3CCNCC3)c2)c2ccccc12 (racemic) [Compound 353, (±)-N-((4-methoxy-6-methyl-2-oxo-1,2-dihydropyridin-3-yl)methyl)-2-methyl-1-(1-(2-(piperazin-1-yl)pyridine-4-yl)ethyl)-1H-indole-3-carboxamide] |  | IC50 (EZH2 (rPRC2); [2]): < 0.1 µM; H3K27me3_Alpha_HeLa_ (EC50) [1]: *(3.33 μM); IC50 (Y641N EZH2; [3]): < 0.1 µM |
| COc1cc(C)[nH]c(=O)c1CNC(=O)c1c(C)n(C(C)C2CN(S(C)(=O)=O)C2)c2ccccc12 (racemic) [Compound 354, (±)-N-((4-methoxy-6-methyl-2-oxo-1,2-dihydropyridin-3-yl)methyl)-2-methyl-1-(1-(1-(methylsulfonyl)azetidin-3-yl)ethyl)-1H-indole-3-carboxamide] | 0.4 to 2 µM | IC50 (EZH2 (rPRC2); [2]): < 0.1 µM; IC50 (Y641N EZH2; [3]): < 0.1 µM |
| Cc1cc(C)c(CNC(=O)c2c(C)n(C(C)C3CC3)c3ncccc23)c(=O)[nH]1 (single isomer, unassigned) [Compound 253, (R or S)-(±)-1-(1-cyclopropylethyl)-N-((4,6-dimethyl-2-oxo-1,2-dihydropyridin-3-yl)methyl)-2-methyl-1H-pyrrolo[2,3-b]pyridine-3-carboxamide] | < 0.4 µM | IC50 (EZH2 (rPRC2); read-out: EZH2 IC50, wild-type EZH2 (rPRC2)): < 0.1 µM; IC50 (Y641N EZH2; read-out: Y641N EZH2 IC50, Y641N mutant EZH2, H3K27Me2 oligonucleosome substrate): 0.1 to 1 µM |
| COc1cc(C)[nH]c(=O)c1CNC(=O)c1c(C)n(C(C)C2CCOCC2)c2cc(Cl)ccc12 (single isomer, unassigned) [Compound 314, (R or S)-6-chloro-N-((4-methoxy-6-methyl-2-oxo-1,2-dihydropridin-3-1)methyl)-2-methyl-1-(1-(tetrahydro-2H-pyran-4-yl)ethyl)-1H-indole-3-carboxamide] | < 0.4 µM | IC50 (EZH2 (rPRC2); [2]): < 0.1 µM; IC50 (Y641N EZH2; [3]): < 0.1 µM |
| COc1cc(C)[nH]c(=O)c1CNC(=O)c1c(C)n(C(C)C2CCN(S(C)(=O)=O)CC2)c2ccccc12 (single isomer, unassigned) [Compound 336, (R or S)-N-((4-methoxy-6-methyl-2-oxo-1,2-dihydropyridin-3-methyl)-2 methyl-1-(1-(1-(methylsulfonyl)piperidin-4-yl)ethyl)-1 H-indole-3-carboxamide] | < 0.4 µM |  |
| COc1cc(C)[nH]c(=O)c1CNC(=O)c1c(C)n(C(C)C2CCN(C(=O)C(C)(C)O)CC2)c2ccccc12 (single isomer, unassigned) [Compound 337, (R or S)-1-(1-(1-(2-hydroxy-2-methylpropanoyl)piperidin-4-yl)ethyl)-N-((4-methoxy-6-methyl-2-oxo-1,2-dihydropyridin-3-yl)methyl)-2-methyl-IH-indole-3-carboxamide] | < 0.4 µM |  |
| COc1cc(C)[nH]c(=O)c1CNC(=O)c1c(C)n(C(C)C2CCN(C3COC3)CC2)c2ccccc12 (single isomer, unassigned) [Compound 341, (R or S)-N-((4-methoxy-6-methyl-2-oxo-1,2dihydropyridin-3-yl)methyl)-2-methyl-1-(1-(1-(oxctan-3-yl)piperidin-4-yl)ethyl)-1 H-indole-3-carboxamide] | < 0.4 µM |  |
| COc1cc(C)[nH]c(=O)c1CNC(=O)c1c(C)n(C(C)C2CCN(C(=O)C(C)C)CC2)c2ccccc12 (single isomer, unassigned) [Compound 342, (R or S)-1-(1-(1-isobulyrylpiperidin-4-yl)ethyl)-N-((4-methoxy-6-methyl-2-oxo-1,2-dihydropyridin-3-yl)methyl)-2-methyl-1H-indole-3-carboxamide] | < 0.4 µM |  |
| Cc1cc(OC(F)F)c(CNC(=O)c2c(C)n(C(C)C3CCN(S(C)(=O)=O)CC3)c3ccccc23)c(=O)[nH]1 (single isomer, unassigned) [Compound 344, (R or S)-N((4-(difluoromethoxy)-6-methyl-2-oxo-1,2-dihydropyridin-3-yl)methyl)-2-methy1-1-(1-(1-(methylsulfonyl)piperidin-4-yl)ethyl)-1H-indole-3-carboxamide] | < 0.4 µM |  |
| COCCN1CCC(C(C)n2c(C)c(C(=O)NCc3c(OC)cc(C)[nH]c3=O)c3ccccc32)CC1 (single isomer, unassigned) [Compound 359, (R or S)-N-((4-methoxy-6-methyl-2-oxo-1,2-dihysropyridin-3-yl)methyl)-1-(1-(1-(2-methoxyethyl)piperidin-4-yl)ethyl)-2-methyl-1 H-indole-3-carboxamide] | 0.4 to 2 µM |  |
| COc1cc(C)[nH]c(=O)c1CNC(=O)c1c(C)n(C(C)C2CCN(CC(F)(F)F)CC2)c2ccccc12 (single isomer, unassigned) [Compound 365, (R or S)-N-((4-methoxy-6-methyl-2-oxo-1,2-dihydropyridin-3-yl)methyl)-2-methyl-1-(1-(1-(2,2,2-trifluoroethyl)piperidin-4-yl)ethyl)-1H-indole-3-carboxamide] | < 0.4 µM |  |
| CCc1cc(C)[nH]c(=O)c1CNC(=O)c1c(C)n(C(C)C2CCN(C)CC2)c2ccccc12 (single isomer, unassigned) [Compound 366, (R or S)-N-((4-ethyl-6-methyl-2-oxo-1,2-dihydropyridin-3-yl)methyl)-2-methyl-1-(1-(1-methylpiperidin-4-yl)ethyl-1 H-indole-3-carboxamide] | 0.4 to 2 µM |  |
| Cc1cc(C)c(CNC(=O)c2c(C)n(C(C)C3CCN(C)CC3)c3ccccc23)c(=O)[nH]1 (single isomer, unassigned) [Compound 367, (R or S)-N-((4,6-dimethyl-2-oxo-1,2-dihydropyridin-3-yl)methyl)-2-methyl-1-(1-(1-methylpiperidin-4-yl)ethyl)-1 H-indole-3-carboxamide] | < 0.4 µM |  |
| CCS(=O)(=O)N1CCC(C(C)n2c(C)c(C(=O)NCc3c(C)cc(C)[nH]c3=O)c3ccccc32)CC1 (single isomer, unassigned) [Compound 368, (R or S)-N-(4,6-dimethyl-2-oxo-1,2-dihydropyridin-3-yl)methyl)-1-(1-(1-(ethylsulfonyl)piperidin-4-yl)ethyl)-2-methyl-1 H-indole-3-carboxamide] | < 0.4 µM |  |
| Cc1cc(C)c(CNC(=O)c2c(C)n(C(C)C3CCN(C4COC4)CC3)c3ccccc23)c(=O)[nH]1 (single isomer, unassigned) [Compound 375, (R or S)-N-((4,6-dimethyl-2-oxo-1,2-dihydropyridin-3-yl)methyl)-2-methyl-1-(1-(1-(oxctan-3-yl)piperidin-4-yl)ethyl)-1 H-indole-3-carboxamide] | < 0.4 µM |  |
